Measured values from US20040029905A1, “Use of weak opioids and mixed opioid agonists/antagonists for treatment of urinary incontinence” (Gruenenthal GmbH, priority 2000, published 2004).

These compounds were tested on anaesthetized naïve female rats (assay: Cystometry on anaesthetized naïve rats (suppression of rhythmic spontaneous bladder contractions)). Conditions: i.v., cumulative administration; mean of the lowest dose of 3 independent experiments at which contractions are first absent over a period of 10 min.
Type: in vivo, rat
Description: The cystometric investigation of naïve female rats was carried out by the method of Kimura et al. (Kimura et al., 1996, Int. J. Urol. 3:218-227). The abdomen of anaesthetized ventilated rats is opened up and the ureter is tied off. The urine is drained from the kidneys. A catheter is inserted into the bladder and fixed. […] After stable starting values are reached, the test substance is administered i.v. in a cumulative manner. An influence on bladder function manifests itself via suppression of spontaneous contractions. The absence of contractions over a period of 10 min is used as an indication of suppression.
A suppression of spontaneous contractions in the rats was measurable with all the substances tested. Table II indicates the mean of the lowest dose of 3 independent experiments at which for the first time contractions are absent over a period of 10 min.

| Compound | Lowest dose effective for suppression of contraction |
| --- | --- |
| CCOC(=O)[C@]1(c2ccccc2)CCC=C[C@H]1N(C)C (relative stereo) [Tilidine, trans-2-(dimethylamino)-1-phenyl-3-cyclohexene-1-carboxylic acid ethyl ester] | 0.5 (n = 3) mg/kg |
| COc1ccc2c3c1O[C@H]1[C@@H](O)C=C[C@H]4[C@@H](C2)N(C)CC[C@@]341 [Codeine (phosphate), (5a,6a)-7,8-didehydro-4,5-epoxy-3-methoxy-17-methylmorphinan-6-ol] | 4.7 (n = 3) mg/kg |
| CCC1(c2cccc(O)c2)CCCCN(C)C1 (stereo not drawn) [Meptazinol, 3-(3-ethylhexahydro-1-methyl-1H-azepin-3-yl)phenol] | 1.0 (n = 3) mg/kg |
